Experimental data from patent US20150344466A1 (SUMITOMO CHEMICAL COMPANY, LIMITED, priority 2013, published 2015).

Assays:
Format in all cases: in vivo
[1] = system: Culex pipiens pallens; assay: Knockdown spray test on adult Culex pipiens pallens (Test Example 4); conditions: topical, 0.25 h, active ingredient 0.1% w/v, 0.5 ml sprayed, within 15 minutes, read-out: knockdown rate of the test insects within 15 minutes
How it was run: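 Knockdown counts were taken 2, 5 and 15 min after spraying and expressed as percent of the 10 adults tested. For the spray, 0.5 ml of solution was applied by spray gun (0.4 kg/cm^2) from 30 cm above a gauze-covered cup in a test chamber; the cup was taken out right after spraying.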

[2] = system: Culex pipiens pallens; assay: Larvicidal test on Culex pipiens pallens, eight days (Test Example 7); conditions: 192 h; last-instar larvae of Culex pipiens pallens; 3.5 ppm in water; eight days later; read-out: death rate
Procedure: (§1) 20 last-instar larvae of Culex pipiens pallens were released into a liquid to which 0.7 ml of the above test drug solution was added to 100 ml of ion-exchanged water (a concentration of the active ingredient of 3.5 ppm). Eight days later, the life and death of the Culex pipiens pallens was examined, and the death rate was calculated. The death rate was calculated by the following equation.
(§2) Death rate (%)=(Number of dead insects/Number of tested insects)×100

[3] = system: Culex pipiens pallens; assay: Larvicidal test on Culex pipiens pallens, one day (Test Example 6); conditions: 24 h; last-instar larvae of Culex pipiens pallens; 3.5 ppm in water; one day later; read-out: death rate
Procedure: Each of the formulations of Compounds of Present Invention (39), (63), (71), (72), (92), (93), (95), (106), (150), (171), (170), (181), (182), (183), (187), (188), (189), (190), (191), (192), (200), (201), (201), (234), (246), (290) and (299) obtained in Formulation Example 15 was diluted with water, so as to have a concentration of the active ingredient of 500 ppm, to prepare a test drug solution.
as §1, with “One day” for “Eight days”
as §2

[4] = system: Blattella germanica; assay: Knockdown spray test on Blattella germanica, 2.0% w/v oil formulation (Test Example 1); conditions: topical, 0.25 h, active ingredient 2.0% w/v, 1.5 ml sprayed, within 15 minutes, read-out: knockdown rate of the test insects within 15 minutes
How it was run: (§3)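 Ten German cockroaches (5 males, 5 females) in a mesh-bottomed, butter-walled container were sprayed with 1.5 ml test solution from 60 cm at 0.42 kg/cm^2 inside a chamber.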

[5] = system: Musca domestica; assay: Knockdown spray test on adult Musca domestica (Test Example 3); conditions: topical, 0.25 h, active ingredient 2.0% w/v, 0.5 ml sprayed, within 15 minutes, read-out: knockdown rate of the test insects within 15 minutes
How it was run: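 Ten adult house flies (5 male, 5 female) in a gauze-covered cup sprayed with 0.5 ml test solution from 30 cm at 0.9 kg/cm^2 inside a chamber, then removed. Knocked-down flies counted at 2, 5 and 15 min and expressed as % of insects tested.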

[6] = system: Spodoptera litura; assay: Foliar spray test on Spodoptera litura on cabbage (Test Example 11); conditions: 96 h, fourth instar larvae of Spodoptera litura on cabbage, 500 ppm spray 20 ml/cup, after 4 days, read-out: controlling value
Procedure: On the other hand, cabbage was planted in a polyethylene cup, and grown until the third-fourth true leaf was spread. The test spray solution was sprayed to the cabbage at a ratio of 20 ml/cup. After the drug solution sprayed orn the cabbage was dried, 10 fourth instar larvae of Spodoptera litura were allowed to parasitize the cabbage. After 4 days, the number of surviving Spodoptera litura on the cabbage leaves was examined, and the controlling value was calculated according to the following equation. Controlling value (%)={1−(Cb×Tai)/([…])}×100 In the equation, the symbols represent as follows. Cb: the number of insects in a non-treated section before treatment Cai: the number of insects in a non-treated section on observation Tb: the number of insects in a treated section before treatment Tai: the number of insects in a treated section on observation

[7] = system: Musca domestica; assay: Filter paper/sucrose bait death rate test on Musca domestica (Test Example 5); conditions: female imagoes of Musca domestica, 0.7 ml on filter paper, after 24 hours
How it was run: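 Ten female imagoes were confined in a sealed cup over a filter paper treated with 0.7 ml of test solution and 30 mg sucrose bait. Mortality was scored at 24 h and expressed as percent of tested insects killed.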

[8] = system: Blattella germanica; assay: Knockdown spray test on Blattella germanica, 0.1% w/v oil formulation (Test Example 2); conditions: topical, 0.25 h, active ingredient 0.1% w/v, 1.5 ml sprayed, within 15 minutes, read-out: knockdown rate of the test insects within 15 minutes
How it was run: as §3

[9] = system: Plutella xylostella; assay: Foliar spray test on Plutella xylostella on cabbage (Test Example 10); conditions: 120 h, third instar larvae of Plutella xylostella on cabbage, 500 ppm spray 20 ml/cup, after five days, read-out: controlling value
How it was run: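 Cabbage at the third–fourth true-leaf stage sprayed with test solution at 20 ml/cup, dried, then infested with 10 third-instar larvae. Insects counted after five days; controlling value (%) calculated from treated and non-treated counts before treatment and at observation.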

Row | Compound | pest or weed control at 0.1 % strength [1] [%] | pest or weed control at 3.5 ppm [2] [%] | pest or weed control at 3.5 ppm [3] [%] | pest or weed control at 2 % strength [4] [%] | pest or weed control at 2 % strength [5] [%] | pest or weed control at 500 ppm [6] [%] | pest or weed control at 500 ppm [7] [%] | pest or weed control at 0.1 % strength [8] [%] | pest or weed control at 500 ppm [9] [%]
1 | O=C(NCC1CCOCC1)c1cc(COc2ccc(C(F)(F)F)cc2)on1 [(189), N-(tetrahydropyran-4-ylmethyl)-5-(4-trifluoromethylphenoxymethyl)isoxazole-3-carboxamide] | ≥ 80 | ≥ 90 | ≥ 90 |  |  |  |  |  | 
2 | O=C(NCC1CCOC1)c1cc(COCc2ccc3ccccc3c2)on1 (stereo not drawn) [(20), N-(tetrahydrofuran-3-ylmethyl)-5-(2-naphthylmethoxymethyl)isoxazole-3-carboxamide] | ≥ 80 | ≥ 90 |  | ≥ 80 | ≥ 80 | ≥ 80 |  |  | 
3 | O=C(NCC1CCOC1)c1cc(COCc2ccc(Cl)cc2F)on1 (stereo not drawn) [(260), N-(tetrahydrofuran-3-ylmethyl)-5-(4-chloro-2-fluorobenzyloxymethyl)isoxazole-3-carboxamide] | ≥ 80 | ≥ 90 |  |  |  | ≥ 80 | ≥ 90 | ≥ 80 | 
4 | O=C(NCC1CCOC1)c1cc(COc2cccc(C(F)(F)F)c2)on1 (stereo not drawn) [(198), N-(tetrahydrofuran-3-ylmethyl)-5-(3-trifluoromethylphenoxymethyl)isoxazole-3-carboxamide] | ≥ 80 | ≥ 90 |  |  |  | ≥ 80 |  | ≥ 80 | 
5 | O=C(NCC1CCOC1)c1cc(COc2ccc(Cl)c(Cl)c2)on1 (stereo not drawn) [(182)] | ≥ 80 | ≥ 90 | ≥ 90 |  |  |  |  |  | 
6 | O=C(NCC1CCOCC1)c1cc(COc2ccc(Br)cc2)on1 [(187), N-(tetrahydropyran-4-ylmethyl)-5-(4-bromophenoxymethyl)isoxazole-3-carboxamide] | ≥ 80 | ≥ 90 | ≥ 90 |  |  |  |  |  | 
7 | O=C(NCC1CCOCC1)c1cc(COCc2ccc(Cl)cc2)on1 [(71), N-(tetrahydropyran-4-ylmethyl)-5-(4-chlorobenzyloxymethyl)isoxazole-3-carboxamide] | ≥ 80 |  | ≥ 90 |  |  |  |  |  | ≥ 90
8 | O=C(NCC1CCOC1)c1cc(Cc2ccc3c(c2)OCO3)on1 (stereo not drawn) [(299), N-(tetrahydrofuran-3-ylmethyl)-5-(1,3-benzodioxolan-5-ylmethyl)isoxazole-3-carboxamide] | ≥ 80 |  | ≥ 90 |  |  |  | ≥ 90 |  | 
9 | O=C(NCC1CCOC1)c1cc(COCc2cccc(Br)c2)on1 (stereo not drawn) [(76), N-(tetrahydrofuran-3-ylmethyl)-5-[(3-bromobenzyl)oxymethyl]isoxazole-3-carboxamide] | ≥ 80 | ≥ 90 |  |  |  | ≥ 80 | ≥ 90 | ≥ 80 | ≥ 90
10 | O=C(NCC1CCOC1)c1cc(COc2ccc(SC(F)(F)F)cc2)on1 (stereo not drawn) [(192), N-(tetrahydrofuran-3-ylmethyl)-5-(4-trifluoromethylthiophenoxymethyl)isoxazole-3-carboxamide] | ≥ 80 | ≥ 90 | ≥ 90 |  |  |  |  |  | 
11 | O=C(NCC1CCOC1)c1cc(COCc2ccc(OC(F)(F)F)cc2)on1 (stereo not drawn) [(93), N-(tetrahydrofuran-3-ylmethyl)-5-(4-trifluoromethoxybenzyloxymethyl)isoxazole-3-carboxamide] | ≥ 80 | ≥ 90 | ≥ 90 |  |  |  |  | ≥ 80 | ≥ 90
12 | O=C(NCC1CCOC1)c1cc(COc2ccc(C(F)(F)F)cc2)on1 (stereo not drawn) [(188), N-(tetrahydrofuran-3-ylmethyl)-5-(4-trifluorophenoxymethyl) isoxazole-3-carboxamide] | ≥ 80 | ≥ 90 | ≥ 90 |  |  |  |  |  | ≥ 90
13 | O=C(NCC1CCOCC1)c1cc(COc2ccc(Cl)cc2)on1 [(181), N-(tetrahydropyran-4-ylmethyl)-5-[(4-chlorophenoxy)methyl]isoxazole-3-carboxamide] | ≥ 80 | ≥ 90 | ≥ 90 |  |  |  |  |  | 
14 | O=C(NCC1CCOC1)c1cc(COCc2ccc3ccccc3c2F)on1 (stereo not drawn) [(258), N-(tetrahydrofuran-3-ylmethyl)-5-(1-fluoro-2-naphthylmethoxymethyl)isoxazole-3-carboxamide] | ≥ 80 | ≥ 90 |  |  |  | ≥ 80 |  | ≥ 80 | ≥ 90
15 | O=C(NCC1CCOCC1)c1cc(COCc2cccc(Br)c2)on1 [(77), N-(tetrahydropyran-4-ylmethyl)-5-(3-bromobenzyloxymethyl)isoxazole-3-carboxamide] | ≥ 80 | ≥ 90 |  |  |  | ≥ 80 |  | ≥ 80 | 
16 | O=C(NCC1CCOC1)c1cc(COCc2ccc(SC(F)(F)F)cc2)on1 (stereo not drawn) [(95), N-(tetrahydrofuran-3-ylmethyl)-5-(4-trifluoromethylthiobenzyloxymethyl)isoxazole-3-carboxamide] | ≥ 80 | ≥ 90 | ≥ 90 |  |  |  |  |  | 
17 | O=C(NCC1CCOC1)c1cc(Cc2ccc(F)c(F)c2)on1 (stereo not drawn) [(306), N-(tetrahydrofuran-3-ylmethyl)-5-(3,4-difluorobenzyl)isoxazole-3-carboxamide] | ≥ 80 |  |  |  |  | ≥ 80 | ≥ 90 | ≥ 80 | ≥ 90
18 | O=C(NCC1CCOCC1)c1cc(COCc2cccc(Cl)c2)on1 [(69), N-(tetrahydropyran-4-ylmethyl)-5-(3-chlorobenzyloxymethyl)isoxazole-3-carboxamide] | ≥ 80 |  |  |  |  | ≥ 80 | ≥ 90 | ≥ 80 | ≥ 90
19 | O=C(NCC1CCOC1)c1cc(Cc2ccc(OC(F)(F)F)cc2)on1 (stereo not drawn) [(315), N-(tetrahydrofuran-3-ylmethyl)-5-(4-trifluoromethoxybenzyl) isoxazole-3-carboxamide] | ≥ 80 | ≥ 90 |  |  |  | ≥ 80 | ≥ 90 |  | 
20 | O=C(NCC1CCOCC1)c1cc(COCc2cccc(OC(F)(F)F)c2)on1 [(79)] | ≥ 80 |  |  |  |  | ≥ 80 | ≥ 90 | ≥ 80 | ≥ 90
